From US6379658B1, “Human sweat malodor counteractant composition and process for using same” (International Flavors & Fragrances Inc., priority 1999, dated 2002)

Assay: Human sweat malodor neutralization (jar method), headspace rated by trained panel using Magnitude Estimation
Details: single fragrance ingredient; % Reduction=100×[1-(malodor intensity/total intensity)]
Method: Malodor neutralization is evaluated by placing a specified amount of malodor into an uncapped, 1 ounce wide-mouth jar. This jar is placed into an 8 ounce wide-mouth jar containing a specified amount of test material or finished fragrance. The quantities of malodor and fragrance are dependent on the specific malodor model used. The 8 ounce jar is capped and allowed to equilibrate. The panelists then rate the headspace for (1) total intensity, (2) malodor intensity and (3) overall like/dislike (hedonics). They are provided with an identified sample of malodor as a reference. Each group of samples presented to the panel contains an unidentified positive control (a fragrance material with no malodor), two unidentified negative controls (malodor with no fragrance) and up to twelve test samples (each fragrance is presented in duplicate or triplicate).
It is to be noted that evaluations are carried out by panelists who have been extensively screened for their olfactory acuity and trained in the method of evaluation (Magnitude Estimation). Panelist performance is constantly monitored and reviewed.
All samples are coded with random 5-digit numbers. Panelists are instructed to select samples from the test set and evaluate them in a random order.
The results of these experiments are expressed in terms of malodor reduction (neutralization), change in overall intensity and improvement in hedonics.
The percent malodor reduction is calculated as:
% Reduction=100×[1-(malodor intensity/total intensity)]
or shown thusly: [formula]
wherein wherein RMOL represents malodor reduction; iMO is malodor intensity; and iT represents total intensity.
The following protocol has been developed to determine the level of odor neutralization:
1. A predetermined quantity of the malodor model is measured with a micropipette into an uncapped 1 oz. wide-mouth jar. This jar is subsequently placed into an 8 oz. wide-mouth jar containing a predetermined quantity of the test material. The 8 oz. jar is capped and allowed to equilibrate prior to evaluation;
2. […] Each judge is also presented with an identified sample of the malodor in order to reinforce the malodor discrimination task;
3. Each of the judges rate the headspace for (a) total odor intensity, (b) malodor intensity and (c) the overall like/dislike (hedonics) of the sample; and […]

First: COc1ccc2ccccc2c1 [β-Naphthyl methyl ether, β-naphthyl methyl ether]
Second: mixture of hexahydro4,7-methanoinden-5-yl propionate and hexahydro-4,7-methanoinden-6-yl propionate [CYCLAPROP ™]
The “% Human Sweat Malodor Coverage” value of the first is higher: 92% reduction for the first, 91% reduction for the second.

Compared with CC(=O)C(C)=CC1C(C)=CCCC1(C)C (centres unmarked) [γ-Methyl ionone, 4-(2,6,6-trimethyl-2-cyclohexen-1-yl)-3-methyl-3-buten-2-one], CC(=O)CCc1ccccc1 [Benzyl acetone, benzyl acetone] is higher in “% Human Sweat Malodor Coverage” value: 93% reduction for the first, 96% reduction for the second.

With CC(=O)c1ccc2ccccc2c1 [Methyl β-naphthalene ketone, methyl β-naphthyl ketone] the “% Human Sweat Malodor Coverage” value was 96% reduction.
